Assay results published in US20230220021A1, “CYCLIC PEPTIDE INHIBITORS OF PSD-95 AND USES THEREOF” (University of Copenhagen, priority 2020, published 2023).
Where two headings read alike, the source gives them in different places. Where a SMILES comes first, the peptide text is derived from it. [ ]: non-standard residue; d: D form.

Target: T1, PSD-95-PDZ2 (Homo sapiens, UniProt P78352)
T1 construct: 7xHis (N); made in house; host or cells: Escherichia coli B21 pLys (for the mutants, 'as previously described')
Assay: Fluorescence polarization (FP) competition assay against cyclic nNOS TAMRA probe
Format: binding
Conditions: for Relative Ki (Ki mut/Ki WT): FP inhibition constant normalized to WT value; for Ki: FP competition, cyclic nNOS TAMRA probe, mean of triplicates, N.B. = not binding
Method: Fluorescence polarization (FP). FP assays were performed in a 384-well plate format. Fluorescence polarization was measured using a Safire 2 plate reader. The instrument Z-factor was optimized for each assay. The G-factor was calibrated to an initial milli polarization value of 20. The wavelength for the cyclic nNOS β-hairpin TAMRA probe was: ex: 530 nm and em: 580 nm. Every measurement was performed in NaPI 50 mM, 50 mM NaCl and 1% BSA at pH 7.2, 25° C. […] The curves were done in triplicates. Then, the polarization was fitted into a one-site binding model using Prism software 8.0 (GraphPad), from which the Kd can be measured. […] The mili polarization (mP) values were plotted as a function of peptide concentration and fitted to a sigmoidal dose-response curve using Prism software 8.0 (GraphPad). The Ki values were calculated according to Nikolovska-Coleska Z. et al.^40-41

T1 sequence (P78352 160-246 limits assumed): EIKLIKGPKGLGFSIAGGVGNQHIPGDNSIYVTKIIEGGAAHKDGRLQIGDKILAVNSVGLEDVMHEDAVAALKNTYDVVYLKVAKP

| Molecule | Relative Ki (Ki mut/Ki WT) | Ki (read-out: Ki) [nM] | Ki |
| --- | --- | --- | --- |
| CC[C@H](C)[C@@H]1NC(=O)[C@H](CO)NC(=O)[C@H](CCCCN)NC(=O)[C@@H]2CCCN2C(=O)[C@H]([C@@H](C)O)NC(=O)CNC(=O)[C@H](CC(=O)O)NC(=O)CNC(=O)[C@H]([C@@H](C)O)NC(=O)[C@H](Cc2ccccc2)NC(=O)[C@H]([C@@H](C)O)NC(=O)[C@H]([C@@H](C)O)NC(=O)[C@H](CCC(=O)O)NC(=O)[C@H](CC(C)C)NC(=O)[C@H](Cc2c[nH]cn2)NC(=O)[C@H]([C@@H](C)O)NC(=O)[C@H](CCC(N)=O)NC(=O)CNC(=O)[C@H]2CCCN2C(=O)[C@H](CCC(N)=O)NC(=O)[C@H]([C@@H](C)O)NC(=O)[C@H](C(C)C)NC(=O)[C@H](CCCNC(=N)N)NC1=O [compound 50] (cyclo(THLETTFTGDGTPKSIRVTQ[dP]GQ)) | 4.79 | – | – |
| CC[C@H](C)[C@@H]1NC(=O)[C@H]([C@@H](C)O)NC(=O)[C@H](CCCCN)NC(=O)[C@@H]2CCCN2C(=O)[C@H]([C@@H](C)O)NC(=O)CNC(=O)[C@H](CCCNC(=N)N)NC(=O)CNC(=O)[C@H]([C@@H](C)O)NC(=O)[C@H](Cc2ccccc2)NC(=O)[C@H]([C@@H](C)O)NC(=O)[C@H]([C@@H](C)O)NC(=O)[C@H](CCC(=O)O)NC(=O)[C@H](CC(C)C)NC(=O)[C@H](Cc2c[nH]cn2)NC(=O)[C@H]([C@@H](C)O)NC(=O)[C@H](CCC(N)=O)NC(=O)CNC(=O)[C@H]2CCCN2C(=O)[C@H](CCC(N)=O)NC(=O)[C@H]([C@@H](C)O)NC(=O)[C@H](C(C)C)NC(=O)[C@H](CCCNC(=N)N)NC1=O [compound 34] (cyclo(THLETTFTGRGTPKTIRVTQ[dP]GQ)) | 0.66 | 990 | – |
| CC[C@H](C)[C@@H]1NC(=O)[C@H]([C@@H](C)O)NC(=O)[C@H](CCCCN)NC(=O)[C@@H]2CCCN2C(=O)[C@H]([C@@H](C)O)NC(=O)CNC(=O)[C@H](CC(=O)O)NC(=O)CNC(=O)[C@H]([C@@H](C)O)NC(=O)[C@H](Cc2ccccc2)NC(=O)[C@H]([C@@H](C)O)NC(=O)[C@H]([C@@H](C)O)NC(=O)[C@H](CCC(=O)O)NC(=O)[C@H](CC(C)C)NC(=O)[C@H](CCC(=O)O)NC(=O)[C@H]([C@@H](C)O)NC(=O)[C@H](CCC(N)=O)NC(=O)CNC(=O)[C@H]2CCCN2C(=O)[C@H](CCC(N)=O)NC(=O)[C@H]([C@@H](C)O)NC(=O)[C@H](C(C)C)NC(=O)[C@H](CCCNC(=N)N)NC1=O [compound 23] (cyclo(TELETTFTGDGTPKTIRVTQ[dP]GQ)) | 4.13 | 6190 | – |
| CC[C@H](C)[C@@H]1NC(=O)[C@H]([C@@H](C)O)NC(=O)[C@H](CCCCN)NC(=O)[C@@H]2CCCN2C(=O)[C@H]([C@@H](C)O)NC(=O)CNC(=O)[C@H](CC(=O)O)NC(=O)CNC(=O)[C@H]([C@@H](C)O)NC(=O)[C@H](Cc2ccccc2)NC(=O)[C@H]([C@@H](C)O)NC(=O)[C@H]([C@@H](C)O)NC(=O)[C@H](CCC(=O)O)NC(=O)[C@H](CC(C)C)NC(=O)[C@H](Cc2c[nH]cn2)NC(=O)[C@H]([C@@H](C)O)NC(=O)[C@H](CCC(N)=O)NC(=O)CNC(=O)[C@H]2CCCN2C(=O)[C@H](CCC(N)=O)NC(=O)[C@H]([C@@H](C)O)NC(=O)[C@H](CCCNC(=N)N)NC(=O)[C@H](CCCNC(=N)N)NC1=O [compound 43] (cyclo(THLETTFTGDGTPKTIRRTQ[dP]GQ)) | 1.13 | – | – |
| CC[C@H](C)[C@@H]1NC(=O)[C@H]([C@@H](C)O)NC(=O)[C@@H](CCCCN)NC(=O)[C@@H]2CCCN2C(=O)[C@H]([C@@H](C)O)NC(=O)CNC(=O)[C@H](CC(=O)O)NC(=O)CNC(=O)[C@H]([C@@H](C)O)NC(=O)[C@H](Cc2ccccc2)NC(=O)[C@H]([C@@H](C)O)NC(=O)[C@H]([C@@H](C)O)NC(=O)[C@H](CCC(=O)O)NC(=O)[C@H](CC(C)C)NC(=O)[C@H](Cc2c[nH]cn2)NC(=O)[C@H]([C@@H](C)O)NC(=O)[C@H](CCC(N)=O)NC(=O)CNC(=O)[C@H]2CCCN2C(=O)[C@H](CCC(N)=O)NC(=O)[C@H]([C@@H](C)O)NC(=O)[C@H](C(C)C)NC(=O)[C@H](CCCNC(=N)N)NC1=O [compound 123] | – | 23200 | – |
| CC[C@H](C)[C@@H]1NC(=O)[C@H]([C@@H](C)O)NC(=O)[C@H](CCCCN)NC(=O)[C@@H]2CCCN2C(=O)[C@H]([C@@H](C)O)NC(=O)CNC(=O)[C@H](CC(=O)O)NC(=O)CNC(=O)[C@H]([C@@H](C)O)NC(=O)[C@H](Cc2ccccc2)NC(=O)[C@H]([C@@H](C)O)NC(=O)[C@H]([C@@H](C)O)NC(=O)[C@H](CCC(=O)O)NC(=O)[C@H](CC(C)C)NC(=O)[C@H](Cc2c[nH]cn2)NC(=O)[C@H]([C@@H](C)O)NC(=O)[C@H](CCC(N)=O)NC(=O)CNC(=O)[C@H]2CCCN2C(=O)[C@H](CCC(N)=O)N(C)C(=O)[C@H]([C@@H](C)O)NC(=O)[C@H](C(C)C)NC(=O)[C@H](CCCNC(=N)N)NC1=O [compound 102] | – | 2200 | – |
| CC[C@H](C)[C@@H]1NC(=O)[C@H]([C@@H](C)O)NC(=O)[C@H](CCCCN)NC(=O)[C@@H]2CCCN2C(=O)[C@H]([C@@H](C)O)NC(=O)CNC(=O)[C@H](CC(=O)O)NC(=O)CNC(=O)[C@H]([C@@H](C)O)NC(=O)[C@H](Cc2ccccc2)NC(=O)[C@H]([C@@H](C)O)NC(=O)[C@H]([C@@H](C)O)NC(=O)[C@H](CCC(=O)O)NC(=O)[C@H](CC(C)C)NC(=O)[C@H](Cc2c[nH]cn2)NC(=O)[C@@H]([C@H](C)O)NC(=O)[C@H](CCC(N)=O)NC(=O)CNC(=O)[C@H]2CCCN2C(=O)[C@H](CCC(N)=O)NC(=O)[C@H]([C@@H](C)O)NC(=O)[C@H](C(C)C)NC(=O)[C@H](CCCNC(=N)N)NC1=O [compound 112] | – | 14600 | – |
| CC[C@H](C)[C@@H]1NC(=O)[C@H]([C@@H](C)O)NC(=O)[C@H](CCCCN)NC(=O)[C@@H]2CCCN2C(=O)[C@H]([C@@H](C)O)NC(=O)CNC(=O)[C@H](CC(=O)O)NC(=O)CNC(=O)[C@H]([C@@H](C)O)NC(=O)[C@H](Cc2ccccc2)NC(=O)[C@H]([C@@H](C)O)NC(=O)[C@H]([C@@H](C)O)NC(=O)[C@H](CCC(=O)O)NC(=O)[C@H](CC(C)C)NC(=O)[C@H](Cc2c[nH]cn2)NC(=O)[C@H]([C@@H](C)O)NC(=O)[C@H](CCC(N)=O)NC(=O)CNC(=O)[C@H]2CCCN2C(=O)[C@H](CCC(N)=O)NC(=O)[C@@H]([C@H](C)O)NC(=O)[C@H](C(C)C)NC(=O)[C@H](CCCNC(=N)N)NC1=O [compound 128] | – | 1830 | – |
| CC[C@H](C)[C@@H]1NC(=O)[C@H]([C@@H](C)O)NC(=O)[C@H](CCCCN)NC(=O)[C@@H]2CCCN2C(=O)[C@H]([C@@H](C)O)NC(=O)CNC(=O)[C@H](CC(=O)O)NC(=O)CNC(=O)[C@H]([C@@H](C)O)NC(=O)[C@H](Cc2ccccc2)NC(=O)[C@H]([C@@H](C)O)NC(=O)[C@H]([C@@H](C)O)NC(=O)[C@H](CCC(=O)O)NC(=O)[C@H](CC(C)C)NC(=O)[C@H](Cc2ccccc2)NC(=O)[C@H]([C@@H](C)O)NC(=O)[C@H](CCC(N)=O)NC(=O)CNC(=O)[C@H]2CCCN2C(=O)[C@H](CCC(N)=O)NC(=O)[C@H]([C@@H](C)O)NC(=O)[C@H](C(C)C)NC(=O)[C@H](CCCNC(=N)N)NC1=O [compound 27] (cyclo(TFLETTFTGDGTPKTIRVTQ[dP]GQ)) | 0.79 | – | – |
| CC[C@H](C)[C@@H]1NC(=O)[C@H]([C@@H](C)O)NC(=O)[C@H](CCCCN)NC(=O)[C@@H]2CCCN2C(=O)[C@H]([C@@H](C)O)NC(=O)[C@H](CCCNC(=N)N)NC(=O)[C@H](CC(=O)O)NC(=O)CNC(=O)[C@H]([C@@H](C)O)NC(=O)[C@H](Cc2ccccc2)NC(=O)[C@H]([C@@H](C)O)NC(=O)[C@H]([C@@H](C)O)NC(=O)[C@H](CCC(=O)O)NC(=O)[C@H](CC(C)C)NC(=O)[C@H](Cc2c[nH]cn2)NC(=O)[C@H]([C@@H](C)O)NC(=O)[C@H](CCC(N)=O)NC(=O)CNC(=O)[C@H]2CCCN2C(=O)[C@H](CCC(N)=O)NC(=O)[C@H]([C@@H](C)O)NC(=O)[C@H](C(C)C)NC(=O)[C@H](CCCNC(=N)N)NC1=O [compound 35] (cyclo(THLETTFTGDRTPKTIRVTQ[dP]GQ)) | 0.50 | – | – |
| 90 (THLETTXTGDGTPKTIRVTQPGQ; cyclized peptide; (7)..(7) X is N-Me-F; (21)..(21) is D-AA) [compound 90] | – | – | N.B. |
| CC[C@H](C)[C@@H]1NC(=O)[C@H]([C@@H](C)O)NC(=O)[C@H](CCCCN)NC(=O)[C@@H]2CCCN2C(=O)[C@H](CC(=O)O)NC(=O)CNC(=O)[C@H](CC(=O)O)NC(=O)CNC(=O)[C@H](Cc2c[nH]c3ccccc23)NC(=O)[C@H](Cc2ccccc2)NC(=O)[C@H]([C@@H](C)O)NC(=O)[C@H]([C@@H](C)O)NC(=O)[C@H](CCC(=O)O)NC(=O)[C@H](CC(C)C)NC(=O)[C@H](Cc2c[nH]cn2)NC(=O)[C@H]([C@@H](C)O)NC(=O)[C@H](CCC(N)=O)NC(=O)CNC(=O)[C@H]2CCCN2C(=O)[C@H](CCC(N)=O)NC(=O)[C@H]([C@@H](C)O)NC(=O)[C@H](C(C)C)NC(=O)[C@H](CCCNC(=N)N)NC1=O [compound 130] (cyclo(THLETTFWGDGDPKTIRVTQ[dP]GQ)) | – | 650 | – |
| CC[C@H](C)[C@@H]1NC(=O)[C@H]([C@@H](C)O)NC(=O)[C@H](CCCCN)NC(=O)[C@@H]2CCCN2C(=O)[C@H]([C@@H](C)O)NC(=O)CNC(=O)[C@H](CC(=O)O)NC(=O)CNC(=O)[C@H](CC(=O)O)NC(=O)[C@H](Cc2ccccc2)NC(=O)[C@H]([C@@H](C)O)NC(=O)[C@H]([C@@H](C)O)NC(=O)[C@H](CCC(=O)O)NC(=O)[C@H](CC(C)C)NC(=O)[C@H](Cc2c[nH]cn2)NC(=O)[C@H]([C@@H](C)O)NC(=O)[C@H](CCC(N)=O)NC(=O)CNC(=O)[C@H]2CCCN2C(=O)[C@H](CCC(N)=O)NC(=O)[C@H]([C@@H](C)O)NC(=O)[C@H](C(C)C)NC(=O)[C@H](CCCNC(=N)N)NC1=O [compound 19] (cyclo(THLETTFDGDGTPKTIRVTQ[dP]GQ)) | 0.63 | 950 | – |
